Source: patent US9907737B2, “Composition comprising ferulic acid ethyl ester and aryl alkanol” (L'AIR LIQUIDE, SOCIETE ANONYME POUR L'ETUDE ET …, priority 2013, dated 2018)
Marks after values point to notes of the source that are not given here.

Legend:
[1] = Antimicrobial effect (preliminary work, general statements); conditions: preliminary work / general statement
C. albicans ATCC: 10231 = test: Bacterial count reduction test (method 1), C. albicans; format: cell-based, Candida albicans
Description: (§1) Method 1: Bacterial Count Reduction Test
(§2) The aim of this bacterial count reduction test is to determine suitable preservatives and reaction times for samples injected in the laboratory.
(§3) Staphylococcus aureus, Escherichia coli or Pseudomonas aeruginosa, Candida albicans, Aspergillus brasiliensis
A 4 day old Candida albicans culture on SA-agar (II subculture) is washed with 5 ml physiological NaCl and adjusted according to a barium sulphate standard (cf. DVG Guidelines). The titer of the Candida albicans suspension is 10^8 CFU/ml.
(§4) The titres of the respectively produced test organism suspensions are determined by means of a dilution series in physiological NaCl and recorded.
(§5) The samples are displaced with different concentrations of suitable preservatives. For each test bacterium a dilution series is required. The samples are injected individually with the respective test organism suspension and stirred well:
(§6) 25 g samples=0.1 ml bacterial suspension
(§7) 50 g samples=0.2 ml bacterial suspension.
(§8) After the indicated reaction times the samples are firstly stirred homogenously with a sterile glass rod and then spread onto CSA or SA agar. The bacteria samples are spread onto CSA and incubated for 48 hours at 37° C. The mould and yeast samples are spread onto SA agar and incubated for 48 hours at 37° C. (Candida albicans) and at 25° C. (Aspergillus brasiliensis).

E. coli ATCC: 11229 = test: Bacterial count reduction test (method 1), E. coli; format: cell-based, Escherichia coli; conditions: o/w cream, initial bacterial count 1.3 × 10^9
Description: as §1, §2, §3
(§9) From a 24-hour CS-angular agar culture (I subculture) of Staphylococcus aureus/Escherichia coli 24-hour CSL-cultures (II subculture) are created. The incubation is carried out at 37° C. The titer of the bacterial suspension is about 10^9 CFU/ml.
as §4, §5, §6, §7, §8

[2] = test system: A. brasiliensis ATCC: 16404; test: Bacterial count reduction test (method 1), A. brasiliensis; format: cell-based, Aspergillus brasiliensis
Description: as §1, §2, §3
A 7 to 14 days old Aspergillus brasiliensis culture on SA agar (25° C.±1° C.) is washed with 5 ml physiological NaCl, filtered by a glass funnel with glass wool and filled with physiological NaCl to 100 ml. The titre of the Aspergillus brasiliensis suspension is about 10^7 CFU/ml.
as §4, §5, §6, §7, §8

S. aureus ATCC: 6538 = test: Bacterial count reduction test (method 1), S. aureus; format: cell-based, Staphylococcus aureus
Description: as §1, §2, §3, §9, §4, §5, §6, §7, §8

P. aeruginosa ATCC: 9027 = test: Bacterial count reduction test (method 1), P. aeruginosa; format: cell-based, Pseudomonas aeruginosa; conditions: o/w-Lotion, initial bacterial count 1.2 × 10^9
Description: as §1, §2, §3, §4, §5, §6, §7, §8

[3] = Water solubility (statement); format: physicochemical
[4] = o/w cream, initial bacterial count 4.1 × 10^8
[5] = o/w cream, initial bacterial count 1.5 × 10^7
[6] = o/w cream, initial bacterial count 1 × 10^9
[7] = o/w-Lotion, initial bacterial count 5.4 × 10^8
[8] = o/w-Lotion, initial bacterial count 7.7 × 10^7
[9] = o/w-Lotion, initial bacterial count 2.2 × 10^9

Structure (SMILES): OCCCc1ccccc1 [0.75% 3-phenyl-propanol-1, 3-phenyl-1-propanol]
- Antimicrobial effect, in words [1]: good anti-microbial effect
- Growth of C. albicans ATCC: 10231 after 24 hours (C. albicans ATCC: 10231; [4]): ++++ (Massive growth About 10^5)
- Growth of C. albicans ATCC: 10231 after 72 hours (C. albicans ATCC: 10231; [4]): ++++ (Massive growth About 10^5)
- Growth of C. albicans ATCC: 10231 after 168 hours (C. albicans ATCC: 10231; [4]): + (Slight growth About 10^2)
- Growth of E. coli ATCC: 11229 after 24 hours (E. coli ATCC: 11229): ++ (Moderate growth About 10^3)
- Growth of A. brasiliensis ATCC: 16404 after 24 hours [2, 5]: ++++ (Massive growth About 10^5)
- Growth of A. brasiliensis ATCC: 16404 after 72 hours [2, 5]: +++ (Heavy growth About 10^4)
- Growth of A. brasiliensis ATCC: 16404 after 168 hours [2, 5]: + (Slight growth About 10^2)
- Growth of S. aureus ATCC: 6538 after 24 hours (S. aureus ATCC: 6538; [6]): ++++ (Massive growth About 10^5)
- Growth of S. aureus ATCC: 6538 after 72 hours (S. aureus ATCC: 6538; [6]): ++++ (Massive growth About 10^5)
- Growth of S. aureus ATCC: 6538 after 168 hours (S. aureus ATCC: 6538; [6]): +++ (Heavy growth About 10^4)

Structure (SMILES): CCCCC(CC)COC(=O)/C=C/c1ccc(O)c(OC)c1 (centres unmarked) [0.1% ferulic acid-2-ethylhexylester, ferulic acid (2-ethyl hexyl) ester]
- Growth of C. albicans ATCC: 10231 after 24 hours (C. albicans ATCC: 10231; [4]): ++++ (Massive growth About 10^5)
- Growth of C. albicans ATCC: 10231 after 72 hours (C. albicans ATCC: 10231; [4]): ++++ (Massive growth About 10^5)
- Growth of C. albicans ATCC: 10231 after 168 hours (C. albicans ATCC: 10231; [4]): ++++ (Massive growth About 10^5)
- Growth of C. albicans ATCC: 10231 after 336 hours (C. albicans ATCC: 10231; [4]): ++++ (Massive growth About 10^5)
- Growth of C. albicans ATCC: 10231 after 24 hours (C. albicans ATCC: 10231; [7]): R (Surface covered About 10^6)
- Growth of C. albicans ATCC: 10231 after 72 hours (C. albicans ATCC: 10231; [7]): R (Surface covered About 10^6)
- Growth of C. albicans ATCC: 10231 after 168 hours (C. albicans ATCC: 10231; [7]): ++++ (Massive growth About 10^5)
- Growth of C. albicans ATCC: 10231 after 336 hours (C. albicans ATCC: 10231; [7]): ++++ (Massive growth About 10^5)
- Growth of E. coli ATCC: 11229 after 24 hours (E. coli ATCC: 11229): R (Surface covered About 10^6)
- Growth of E. coli ATCC: 11229 after 72 hours (E. coli ATCC: 11229): ++++ (Massive growth About 10^5)
- Growth of E. coli ATCC: 11229 after 168 hours (E. coli ATCC: 11229): R (Surface covered About 10^6)
- Growth of E. coli ATCC: 11229 after 336 hours (E. coli ATCC: 11229): R (Surface covered About 10^6)
- Growth of A. brasiliensis ATCC: 16404 after 24 hours [2, 5]: R (Surface covered About 10^6)
- Growth of A. brasiliensis ATCC: 16404 after 72 hours [2, 5]: ++++ (Massive growth About 10^5)
- Growth of A. brasiliensis ATCC: 16404 after 168 hours [2, 5]: ++++ (Massive growth About 10^5)
- Growth of A. brasiliensis ATCC: 16404 after 336 hours [2, 5]: ++++ (Massive growth About 10^5)
- Growth of A. brasiliensis ATCC: 16404 after 24 hours [2, 8]: ++++ (Massive growth About 10^5)
- Growth of A. brasiliensis ATCC: 16404 after 72 hours [2, 8]: ++++ (Massive growth About 10^5)
- Growth of A. brasiliensis ATCC: 16404 after 168 hours [2, 8]: ++++ (Massive growth About 10^5)
- Growth of A. brasiliensis ATCC: 16404 after 336 hours [2, 8]: ++++ (Massive growth About 10^5)
- Growth of P. aeruginosa ATCC: 9027 after 24 hours (P. aeruginosa ATCC: 9027): +++ (Heavy growth About 10^4)
- Growth of P. aeruginosa ATCC: 9027 after 72 hours (P. aeruginosa ATCC: 9027): ++++ (Massive growth About 10^5)
- Growth of P. aeruginosa ATCC: 9027 after 168 hours (P. aeruginosa ATCC: 9027): ++++ (Massive growth About 10^5)
- Growth of P. aeruginosa ATCC: 9027 after 336 hours (P. aeruginosa ATCC: 9027): ++++ (Massive growth About 10^5)
- Growth of S. aureus ATCC: 6538 after 24 hours (S. aureus ATCC: 6538; [6]): ++++ (Massive growth About 10^5)
- Growth of S. aureus ATCC: 6538 after 72 hours (S. aureus ATCC: 6538; [6]): ++++ (Massive growth About 10^5)
- Growth of S. aureus ATCC: 6538 after 168 hours (S. aureus ATCC: 6538; [6]): ++++ (Massive growth About 10^5)
- Growth of S. aureus ATCC: 6538 after 336 hours (S. aureus ATCC: 6538; [6]): +++ (Heavy growth About 10^4)
- Growth of S. aureus ATCC: 6538 after 24 hours (S. aureus ATCC: 6538; [9]): R (Surface covered About 10^6)
- Growth of S. aureus ATCC: 6538 after 72 hours (S. aureus ATCC: 6538; [9]): ++++ (Massive growth About 10^5)
- Growth of S. aureus ATCC: 6538 after 168 hours (S. aureus ATCC: 6538; [9]): ++++ (Massive growth About 10^5)
- Growth of S. aureus ATCC: 6538 after 336 hours (S. aureus ATCC: 6538; [9]): ++++ (Massive growth About 10^5)

Structure (SMILES): CCOC(=O)/C=C/c1ccc(O)c(OC)c1 [0.1% ferulic acid-ethyl ester, ferulic acid ethyl ester]
- Antimicrobial effect, in words [1]: much weaker antimicrobial effect than ferulic acid itself
- Water solubility, in words [3]: poor water solubility
- Growth of C. albicans ATCC: 10231 after 24 hours (C. albicans ATCC: 10231; [4]): R (Surface covered About 10^6)
- Growth of C. albicans ATCC: 10231 after 72 hours (C. albicans ATCC: 10231; [4]): R (Surface covered About 10^6)
- Growth of C. albicans ATCC: 10231 after 168 hours (C. albicans ATCC: 10231; [4]): R (Surface covered About 10^6)
- Growth of C. albicans ATCC: 10231 after 336 hours (C. albicans ATCC: 10231; [4]): R (Surface covered About 10^6)
- Growth of C. albicans ATCC: 10231 after 24 hours (C. albicans ATCC: 10231; [7]): ++++ (Massive growth About 10^5)
- Growth of C. albicans ATCC: 10231 after 72 hours (C. albicans ATCC: 10231; [7]): ++++ (Massive growth About 10^5)
- Growth of C. albicans ATCC: 10231 after 168 hours (C. albicans ATCC: 10231; [7]): ++++ (Massive growth About 10^5)
- Growth of C. albicans ATCC: 10231 after 336 hours (C. albicans ATCC: 10231; [7]): ++++ (Massive growth About 10^5)
- Growth of E. coli ATCC: 11229 after 24 hours (E. coli ATCC: 11229): R (Surface covered About 10^6)
- Growth of E. coli ATCC: 11229 after 72 hours (E. coli ATCC: 11229): R (Surface covered About 10^6)
- Growth of E. coli ATCC: 11229 after 168 hours (E. coli ATCC: 11229): ++++ (Massive growth About 10^5)
- Growth of E. coli ATCC: 11229 after 336 hours (E. coli ATCC: 11229): R (Surface covered About 10^6)
- Growth of A. brasiliensis ATCC: 16404 after 24 hours [2, 5]: ++++ (Massive growth About 10^5)
- Growth of A. brasiliensis ATCC: 16404 after 72 hours [2, 5]: ++++ (Massive growth About 10^5)
- Growth of A. brasiliensis ATCC: 16404 after 168 hours [2, 5]: ++++ (Massive growth About 10^5)
- Growth of A. brasiliensis ATCC: 16404 after 336 hours [2, 5]: +++ (Heavy growth About 10^4)
- Growth of A. brasiliensis ATCC: 16404 after 24 hours [2, 8]: ++ (Moderate growth About 10^3)
- Growth of A. brasiliensis ATCC: 16404 after 72 hours [2, 8]: +++ (Heavy growth About 10^4)
- Growth of A. brasiliensis ATCC: 16404 after 168 hours [2, 8]: +++ (Heavy growth About 10^4)
- Growth of A. brasiliensis ATCC: 16404 after 336 hours [2, 8]: ++++ (Massive growth About 10^5)
- Growth of P. aeruginosa ATCC: 9027 after 24 hours (P. aeruginosa ATCC: 9027): ++++ (Massive growth About 10^5)
- Growth of P. aeruginosa ATCC: 9027 after 72 hours (P. aeruginosa ATCC: 9027): ++++ (Massive growth About 10^5)
- Growth of P. aeruginosa ATCC: 9027 after 168 hours (P. aeruginosa ATCC: 9027): ++++ (Massive growth About 10^5)
- Growth of P. aeruginosa ATCC: 9027 after 336 hours (P. aeruginosa ATCC: 9027): ++++ (Massive growth About 10^5)
- Growth of S. aureus ATCC: 6538 after 24 hours (S. aureus ATCC: 6538; [6]): ++++ (Massive growth About 10^5)
- Growth of S. aureus ATCC: 6538 after 72 hours (S. aureus ATCC: 6538; [6]): R (Surface covered About 10^6)
- Growth of S. aureus ATCC: 6538 after 168 hours (S. aureus ATCC: 6538; [6]): R (Surface covered About 10^6)
- Growth of S. aureus ATCC: 6538 after 336 hours (S. aureus ATCC: 6538; [6]): ++++ (Massive growth About 10^5)
- Growth of S. aureus ATCC: 6538 after 24 hours (S. aureus ATCC: 6538; [9]): ++++ (Massive growth About 10^5)
- Growth of S. aureus ATCC: 6538 after 72 hours (S. aureus ATCC: 6538; [9]): ++++ (Massive growth About 10^5)
- Growth of S. aureus ATCC: 6538 after 168 hours (S. aureus ATCC: 6538; [9]): +++ (Heavy growth About 10^4)
- Growth of S. aureus ATCC: 6538 after 336 hours (S. aureus ATCC: 6538; [9]): +++ (Heavy growth About 10^4)
